# Results taken from patent US9993436B2, “Porous hollow fiber anti-solvent crystallization-based continuous method of polymer coating on submicron and nanoparticles” (New Jersey Institute of Technology, priority 2014, dated 2018).
# Experiments:
# [1] = Particle size distribution by laser diffraction particle size analyzer; assay type: physicochemical
# Protocol: A laser diffraction particle size analyzer (LS230, Beckman Coulter, Brea, Calif.) was used to identify the extent of particle agglomeration. An aqueous micron-size suspension of the particle sample was prepared after 30 s of sonication to break the soft bonding between particles. After that a few drops of the suspension were introduced in the inlet of the instrument for analysis.
# Residence time plays an important role in the PHFAC process since precipitation of both the polymer and the drug can be affected by the variation of residence time in the shell side of the module. Residence time can be simply altered by changing the shell-side feed solution flow rate. To identify the influence of the feed solution flow rate on the particle size distribution (PSD) of GF crystals, the solution containing the dissolved drug without any polymer was passed through the PHFAC module at different rates. The particle size distribution will be affected by the extent of supersaturation created and the rate at which supersaturation is created. Both are influenced by the rate at which the anti-solvent is introduced from the tube side to the shell side for a given feed solution flow rate.
# Since one of the objectives of the study is to understand the impact of this novel PHFAC coating technique on the synthesized drug particles, the as-received uncoated GF particles and the Eudragit-coated GF particles obtained from the PHFAC were selected for particle size distribution analysis. A suspension of the samples in water was carefully dropped into the inlet of the laser diffraction particle size analyzer. The median size of the uncoated GF sample (11.6 μm) was close to the manufacturer's specification (10 μm). After polymer coating, the median size of the coated drug particles increased to 19.2 μm. One reason for the median size increase is obviously due to the coating which increases the particle size. Another reason is that the coating of GF by the polymer brings in a certain amount of agglomeration. Attachment of neighboring coated drug particles will take place due to the sticking tendency of the polymer-formed liquid bridges.
# A laser diffraction particle size analyzer (LS 230, Beckman Coulter, Brea, Calif.) was used to determine the particle size distribution. An aqueous particle suspension of the particle sample was prepared by introducing the dry sample powder into DI water and sonicating it for about 30 seconds to break the soft bonding.
# [2] = cited from earlier work
# [3] = physchem
# Text: Eudragit RL 100 (Mw, 150,000; a copolymer of methyl methacrylate, ethyl acrylate and methacrylic acid ester) from Evonik-Degussa (Parsippany, N.J.) was employed as the coating polymer. Drug particles of Griseofulvin (GF) from Letco (Decatur, Ala.) were used without further treatment. […] Sodium dodecyl sulfate (SDS) was used as a surfactant (Sigma-Aldrich). Deionized water was used as the tube side anti-solvent liquid. The Nylon 6 hollow fibers were obtained from ENKA America Inc. (Asheville, N.C.).
# [4] = Dissolution test, USP II paddle method, UV at 296 nm; assay type: physicochemical; settings: up to 50 minutes; 0.27% SDS solution 900 mL, 37° C., paddle 50 rpm; FIG. 8
# Protocol: Dissolution tests for the uncoated and coated Griseofulvin particles were determined via a Distek dissolution tester (North Brunswick, N.J.). According to the USP II paddle method, 0.27% of SDS solution with 900 mL volume was added into the vessel as a buffer solution. Temperature of the medium was maintained at 37° C. and a paddle stirring speed of 50 rpm was used. The sample used was equivalent to a dose of 35 mg of GF, and dropped into a dissolution vessel containing the buffer solution. Samples having a volume of 6 mL were taken out at 1, 3, 5, 10, 20, 30, 40, 50 and 80 min and immediately analyzed by UV spectroscopy (52100UV+, Cole-Parmer, Vernon Hills, Ill.) at a wavelength of 296 nm. As a blank benchmark for the test, a 0.27% SDS buffer solution was measured first.
# To illustrate the advantages of a coated drug for controlled release, dissolution tests were performed on three samples: as-received drug, uncoated drug, and polymer-coated drug.
# [5] = drug crystals from PHFAC module without any polymer in the feed solution, various shell/tube side flow rates
SMILES,"Median size [1, 5] [μm]","d10 [1, 5] [μm]","d90 [1, 5] [μm]","Median size ([1]; suspension in water, FIG. 4) [μm]",solubility in water [3],solubility ([3]; organic solvent or mixture) [mM],dissolution profile (comparison of curves) [4],"median size, manufacturer's specification [2] [μm]"
"COC1=CC(=O)C[C@@H](C)[C@]12Oc1c(Cl)c(OC)cc(OC)c1C2=O [X1, Griseofulvin]",7.333,4.977,15.29,–,–,–,–,–
"COC1=CC(=O)C[C@@H](C)[C@]12Oc1c(Cl)c(OC)cc(OC)c1C2=O [X2, Griseofulvin]",11.83,2.117,30.30,–,–,–,–,–
"COC1=CC(=O)C[C@@H](C)[C@]12Oc1c(Cl)c(OC)cc(OC)c1C2=O [X0, Griseofulvin]",1.617,1.001,2.219,–,–,–,–,–
"COC1=CC(=O)C[C@@H](C)[C@]12Oc1c(Cl)c(OC)cc(OC)c1C2=O [X3, Griseofulvin]",11.76,2.939,26.62,–,–,–,–,–

# The next lines start with results.
"Median size [1, 5] [μm]","d10 [1, 5] [μm]","d90 [1, 5] [μm]","Median size ([1]; suspension in water, FIG. 4) [μm]",solubility in water [3],solubility ([3]; organic solvent or mixture) [mM],dissolution profile (comparison of curves) [4],SMILES,"median size, manufacturer's specification [2] [μm]"
–,–,–,11.6,practically insoluble,116,–,"COC1=CC(=O)C[C@@H](C)[C@]12Oc1c(Cl)c(OC)cc(OC)c1C2=O [GF, Griseofulvin]",10
–,–,–,–,–,–,essentially similar dissolution curves,"COC1=CC(=O)C[C@@H](C)[C@]12Oc1c(Cl)c(OC)cc(OC)c1C2=O [uncoated GF, Griseofulvin]",–
